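Protocol summary: plate cells (96-well), add compound at 5 concentrations, incubate 48 h, interpolate endpoints linearly. Here, GI50 denotes the concentration required for 50% inhibition of growth. TGI denotes the concentration required for complete inhibition of growth.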

Test in all cases: NCI-60 cell line screen, 48 h
Experiment [1] has as its system UO-31 renal.
For experiment [2], the system named is ACHN renal.
For experiment [3], the system named is OVCAR-4 ovarian.
Experiment [4] deals with CCRF-CEM leukemia.
Experiment [5] concerns SK-OV-3 ovarian.
Experiment [6] deals with U251 CNS.
In experiment [7] the test system is SNB-19 CNS.
Experiment [8] relates to IGROV1 ovarian.
Experiment [9] relates to UACC-62 melanoma.

As to `O=S(=O)(c1ccccc1)C1(C2(S(=O)(=O)c3ccccc3)CCN=N2)CCN=N1` (centres undefined), the TGI in [1], in experiment [2], in [3], in experiment [4], in experiment [5] and in [6] was more than 100 µM in each case. Also, the TGI in experiment [7] and in [8] was more than 100 µM each time.

Regarding `CCCOC(=O)C1C(c2ccc(OC)cc2)NC(c2ccc(OC)cc2)C(C(=O)OCCC)S1(=O)=O` (centres undefined), the GI50 in [1], in experiment [2], in experiment [3], in experiment [6], in experiment [7] and in [8] was more than 100 µM in each case. For the same molecule, the GI50 in experiment [9] is more than 100 µM. In addition, the TGI in [1], in experiment [2], in experiment [3], in experiment [5], in experiment [6] and in [7] was more than 100 µM throughout. Moreover, the TGI in experiment [8] and in experiment [9] was more than 100 µM in each case.

With `O=C(/C=C/c1cccc(Cl)c1)c1ccccc1`, the GI50 in experiment [1] was 6.55 µM; in [2] it was 10.5 µM; in experiment [3] it was 13.6 µM; in experiment [4], 3.49 µM; in experiment [5], 16.7 µM; in experiment [6] it was 2.67 µM. The GI50 in experiment [7] was 11.7 µM; in experiment [8], 2.06 µM; in experiment [9] it was 13.9 µM. In addition, the TGI in [1] turned out to be 21.9 µM; in experiment [2], 23.3 µM; in experiment [3], 26.8 µM; in experiment [4], 23.2 µM; in [5], 30.9 µM; in experiment [6], 7.89 µM. The TGI in [7] was determined as 25.8 µM; in experiment [8], 6.41 µM; in experiment [9], 27.9 µM.

For the molecule `COC(=O)C(C(=O)C(=O)Nc1nc2ccc(OC)cc2s1)c1cnc2ccccc2n1` (centres undefined), the TGI in experiment [1], in experiment [2], in [3], in experiment [5], in [6] and in [7] was more than 100 µM each time. In addition, the TGI in experiment [8] and in experiment [9] was more than 100 µM in each case.

Take `O=C1CC2=CCCC2O1` (centres undefined): the TGI in [1], in [3], in experiment [4], in experiment [5], in experiment [6] and in experiment [7] was more than 100 µM in each case. The TGI in experiment [8] and in experiment [9] was more than 100 µM throughout.

With `CC[P+](C)(C)CC`, the TGI in [1], in experiment [2], in experiment [3], in [4], in [5] and in [6] was more than 100 µM in each case. Moreover, the TGI in [7], in experiment [8] and in experiment [9] was more than 100 µM in each case.

As for `Oc1ccc(Br)cc1C=Nc1ccc(Oc2ccc(N=Cc3cc(Br)ccc3O)cc2)cc1`, the TGI in experiment [1], in experiment [2], in [3], in [4], in experiment [5] and in experiment [6] was more than 19.6 µM in each case. For the same molecule, the TGI in experiment [7], in experiment [8] and in experiment [9] was more than 19.6 µM in each case.

`COc1ccc(C2=NC(CO)[C@H](c3ccccc3)O2)cc1OC` (some centres undefined): the TGI in experiment [1], in [2], in [3], in [4], in experiment [5] and in experiment [7] was more than 100 µM throughout. Further, the TGI in experiment [8] and in experiment [9] was more than 100 µM throughout.

`CC[C@@]1(O)C(=O)OCc2c1cc1n(c2=O)Cc2cc3c(N)c(OC)ccc3nc2-1`: the GI50 is 0.0547 µM in experiment [1]; 0.0255 µM in [2]; 0.229 µM in [3]; less than 0.01 µM in [4]; 0.0582 µM in experiment [5]; less than 0.01 µM in experiment [6]. The GI50 in experiment [7] was less than 0.0238 µM; in experiment [8], 0.223 µM; in [9] it was less than 0.01 µM. For the same molecule, the TGI in [1] stood at 0.25 µM; in [2] it was 0.0767 µM; in experiment [3], 1.36 µM; in [4] it was 0.0409 µM; in experiment [5] it was 2.29 µM; in experiment [6] it was 0.201 µM. The figures for the TGI in [7], in experiment [8] and in experiment [9] were more than 61.9 µM, 2.45 µM and 0.0285 µM, respectively.

On to `O=S(=O)([O-])c1ccc(C=Nc2ccccc2)c([O-])c1.O=S(=O)([O-])c1ccc(C=Nc2ccccc2)c([O-])c1.[Co+2]`, for which the GI50 in experiment [1] is 21 µM; in [2], 48.1 µM; in experiment [4], 11.7 µM; in experiment [5] it was more than 100 µM; in experiment [7], more than 100 µM; in experiment [8], more than 100 µM. For the same molecule, the GI50 in experiment [9] was 3.96 µM. Moreover, the TGI in [1], in [2], in experiment [4], in [5], in experiment [7] and in experiment [8] was more than 100 µM each time. For the same molecule, the TGI in [9] is more than 100 µM.

Consider `O=C1c2ccccc2C(=O)N1CCN(CCN1C(=O)c2ccccc2C1=O)Cc1ccccc1`, for which the TGI in experiment [1], in experiment [2], in experiment [3], in [4], in [5] and in [6] was more than 100 µM each time. Also, the TGI in experiment [7] and in [9] was more than 100 µM in each case.

As for `Cc1nc2ccccc2c(/C=C/c2ccc(C(F)(F)F)cc2)c1C(=O)/C=C/c1ccccc1`, the GI50 in [1] was 1.08 µM; in experiment [2] it was 1.54 µM; in experiment [4], 0.675 µM; in experiment [5] it was 1.54 µM; in experiment [6], 1.47 µM; in experiment [7], 1.64 µM. The GI50 in experiment [8] was 1.12 µM; in experiment [9], 1.49 µM. For the same molecule, the TGI in [1] was 2.27 µM; in experiment [2] it was 2.87 µM; in experiment [4], more than 100 µM; in experiment [5], 2.98 µM; in experiment [6], 2.92 µM; in [7], 3.01 µM. In addition, the TGI in experiment [8] and in [9] was 3 µM in each case.

For the origin of these results see PubChem BioAssay (NCI).
